“Also recorded” adds a separate entry of the source. Where two headings read alike, the source gives them in different places.
Key:
Hela cells = assay: Cytotoxicity assay (MTT), HeLa; assay type: cell-based; settings: 1 to 100 μM, 24 h
Protocol: (§1) Cell viability results are reported relative to cells treated with vehicle only (100% cell viability).
(§2) 5×10^3 cells were seeded on 80 μl growth media (except 2.5×10^4 Jurkat cells) in each well in 96-well plates and incubate O/N at 37° C. 20 μl of fresh growth media containing each compound were added into each well to make the final concentration ranging from 1-100 μM. DMSO was used for normalization. Cell titer was tested every 24 h using CellTiter 96 non-radioactive cell proliferation assay kit (Promega, Madison, Wis.) at 560 nm absorbance.

WT-TTR in human serum [1] = molecular target: T1, WT-TTR in human serum (Homo sapiens, UniProt P02766); assay: Serum WT-TTR tetramer stability against acid denaturation; settings: 10 μM compound, human serum (TTR ~5 μM), pH 4.0, 72 hours
Protocol: Serum samples were incubated in acetate buffer (pH 4.0), with DMSO or 10 μM of test compound, for the desired time period (0 and 72 hours) before cross-linking, SDS-PAGE, and immunoblotting. The density of all TTR bands (TTR tetramer; arrowhead and TTR bound to RBP; solid arrow) was quantified using an Odyssey infrared imaging system (LI-COR Bioscience, Lincoln, Nebr.) and reported as % TTR tetramer=100×[(tetramer & tetramer+RBP density, 72 hrs)/(tetramer & tetramer+RBP density of DMSO, 0 hrs)].
All compounds were 10 mM stock solutions in DMSO and diluted accordingly with DMSO for different assays. 0.5 μl of each compound was added to 24.5 μl of human serum (from human male AB plasma, Sigma) to make the final concentration of 10 μM. The samples were incubated at 37° C. for 2 h, and then 10 μl of the samples were diluted 1:10 with acidification buffer (pH 4.0, 100 mM sodium acetate, 100 mM KCl, 1 mM EDTA, 1 mM DTT). […] All the samples were denatured with adding 100 μl SDS gel loading buffer and boiled for 5 min. […] The normalization was done by dividing each value of the TTR tetramer band intensity by the average of all the values at time 0.
The compounds were tested for their ability to stabilize WT-TTR in human serum (FIG. 5). […] Test compounds (10 μM) were pre-incubated with human serum (TTR ˜5 μM) and the pH was lowered to pH 4.0 to induce aggregation. Aliquots, taken at 0 and 72 hours, were treated with glutaraldehyde to cross-link TTR tetramers that remained intact in the serum sample. SDS-PAGE followed by immunoblot analysis was used to measure the amount of intact TTR tetramer after 72 hours of acid treatment in the presence and absence of test compounds.

TTR = molecular target: T2, TTR (Homo sapiens, UniProt P02766); assay: Isothermal titration calorimetry (ITC); assay type: binding; settings: for Kd: TTR 2 μM titrated with 25 μM compound, PBS pH 7.4, 25° C., two-site negative cooperativity model; for ΔG1 / ΔH1 / ΔG2 / ΔH2: ITC; for ΔG1 / ΔH1: first binding site; for ΔG2 / ΔH2: second binding site
T2 construct: purchased Sigma; host or cells: human plasma

WT-TTR in human serum [2] = molecular target: T1, WT-TTR in human serum; assay: Serum TTR selectivity assay (covalent probe 6 competition); assay type: binding; parameters: tissue Sigma-Aldrich; host or cells: human serum (A4: from human male AB plasma); settings: 10 μM compound, 3.6 μM probe, human serum (TTR ~5 μM), after 6 hours; lower = more selective
Protocol: 98 μL of human serum (Sigma-Aldrich) was mixed with 1 μL of test compounds (1.0 mM stock solution in DMSO, final concentration: 10 μM) and 1 μL of covalent probe 6 (0.36 mM stock solution in DMSO: final concentration: 3.6 μM). The fluorescence changes (λex=328 nm and λem=384 nm) were monitored every 10 min using a microplate spectrophotometer reader (Molecular Devices SpectraMax M5) for 6 h at 25° C.
Covalent probe 6 binds selectively to TTR in serum and covalently modifies K15, creating a fluorescent conjugate. Ligands that bind with high selectivity to TTR in serum decrease covalent probe 6 binding to TTR and therefore lower the fluorescence. All test compounds (10 μM) were incubated with human serum (WT-TTR concentration ˜5 μM) in the presence of covalent probe 6 (3.6 μM) (FIG. 4).

Hep3B cells = assay: Cytotoxicity assay (MTT), Hep3B; assay type: cell-based, human; settings: 1 to 100 μM, 24 h
Protocol: as §1, §2

[3] = test system: Hep3B, Jurkat, MCF7 and HeLa cell lines; assay: Cytotoxicity assay (MTT), panel of four cell lines; assay type: cell-based; settings: 1 to 100 μM, 24 h
Protocol: as §1, §2

[4] = molecular target: T3, V122I-TTR in serum from FAC patients (Homo sapiens, UniProt P02766, V142I); assay: Serum V122I-TTR tetramer stability against acid denaturation; assay type: biochemical; settings: 10 μM compound, pH 4.0, 72 hours
T3 construct: stabilization of V122I-TTR in serum from two FAC patients; from tissue; host or cells: serum of two FAC patients carrying V122I

MCF7 cells = assay: Cytotoxicity assay (MTT), MCF7; assay type: cell-based; settings: MCF7, 1 to 100 μM, 24 h
Protocol: as §1, §2

[5] = human subjects, 20 mg daily dose; read-out: mean maximum concentration (Cmax) in serum; cited from earlier work

TTR tetramer stabilization (% TTR tetramer) (WT-TTR in human serum [1])	Kd (TTR; read-out: Kd1)	Kd (TTR; read-out: Kd2)	covalent probe 6 binding to TTR relative to probe alone (WT-TTR in human serum [2])	V122I-TTR tetramer stabilized [4]	ΔG1 (TTR)	ΔH1 (TTR)	ΔG2 (TTR)	ΔH2 (TTR)	SMILES	concentration at which cytotoxicity is shown (Hela cells)	concentration at which cytotoxicity is shown (Hep3B cells)	concentration at which toxicity to certain cell lines is displayed [3]	cytotoxicity towards the cell lines tested [3]	concentration at which cytotoxic effects were observed (MCF7 cells)	Cmax [5]
61.7%+/−2.1	0.058 µM	0.5 µM	59.3±8.7%	–	–	–	–	–	Cc1n[nH]c(C)c1CCCOc1ccccc1F [Compound A]	> 25 µM	> 25 µM	> 25 µM	–	–	–
108+/−6%	–	–	3.1±2.9%	~100%	~−11.4	-13.6 kcal/mol	~−8.8	-7.5 kcal/mol	Cc1n[nH]c(C)c1CCCOc1cc(C(=O)O)ccc1F [Compound VIIc, 3-(3-(3,5-Dimethyl-1H-pyrazol-4-yl)propoxy)-4-fluorobenzoic acid]	–	–	–	not toxic; also recorded: no cytotoxic effects	–	–
about 58%+/−3	–	–	–	–	~−11.4	-5.0 kcal/mol	~−8.8	-3.9 kcal/mol	O=C(O)c1ccc2nc(-c3cc(Cl)cc(Cl)c3)oc2c1 [tafamidis]	–	–	–	–	> 50 µM	~7.4 µM

— patent publication US10842777B2, “Compounds and compositions that bind and stabilize transthyretin and their use for inhibiting transthyretin amyloidosis and protein-protein interactions” (The Board of Trustees of the Leland Stanford Junior …, priority 2012, dated 2020)
